Data from patent US8486373B2, “Intramolecularly-quenched near infrared fluorescent probes” (The General Hospital Corporation, priority 1998, dated 2013).

Assay: Properties of commercially-available near infrared fluorochromes
Format: physicochemical
Settings: Cy5.5 free in solution, FIG. 3A
Text: Fluorescent probes with excitation and emission wavelengths in the near infrared spectrum are used, i.e., 650-1300 nm. Use of this portion of the electromagnetic spectrum maximizes tissue penetration and minimizes absorption by physiologically abundant absorbers such as hemoglobin (<650 nm) and water (>1200 nm). […] Table 1 summarizes information on the properties of six commercially-available near infrared fluorochromes, whose structures are shown in FIGS. 2A and 2B.

Cy5.5
emission wavelength / peak emission: 694 nm
